Measured values reported in patent US8178688B2, “Benzamidine derivatives, process for the preparation thereof and pharmaceutical composition comprising the same” (Dong Wha Pharmaceutical Co., Ltd., priority 2004, dated 2012).

System: osteoclast differentiation
Test: Inhibitory effects on osteoclast differentiation (co-culture of bone marrow cells with osteoblast, TRAP staining)
Type: cell-based, mice
Conditions: Mus musculus, Osteoclast, 168 h, read-out: % inhibitory activity on osteoclastogenesis
Procedure: The effect of benzamidine derivatives of the present invention on osteoclast proliferation and differentiation process was evaluated via co-culture with osteoblast.
Tibia and Femora were aseptically ectomized from male ddY mice of 6-8 weeks to harvest bone marrow cells by using a syringe (21G, Korea Green Cross).
The bone marrow cells were suspended in 5 mL α-MEM medium (Gibco BRL Co.) containing sodium bicarbonate (2.0 g/L), streptomycin (100 mg/L) and penicillin ([…]). The harvested cells were centrifuged at 600×g for 5 mins to collect the whole quantity. To remove the red blood cells within bone marrow cells, 3 mL of Tris HCl (0.83% NH4Cl, pH7.5) was added and well mixed. After centrifuging above cells, the numbers of bone marrow cells were counted and then, the bone marrow cells were immediately used for co-culture system with osteoblast.
The calvaria were aseptically ectomized from neonate ICR mice of 1˜2 days, washed with PBS solution and incubated with a mixture of enzyme solution (0.2% collagenase and 0.1% dispase) at 37° C. gentle shaker. This procedure was sequentially repeated (10, 10, 10, 20, 20 and 20 mins), and then the calvaria cells having the characteristics of osteoblast mostly released from III-VI digestion groups were collected and washed with the medium (serum-free α-MEM). The washed cells were cultivated in α-MEM medium containing 10% FBS for 2˜3 days. After subculturing, these cells were used for this experiment, and diluted to reach the concentration of 1×10^6 cell/mL for storage at −70° C.
Benzamidine derivatives of the present invention were dissolved in a sterile distilled water or ethanol to make desired concentrations following dilution. The final volume of specimen added to the medium was determined at the ratio of 1:1000.
Bone marrow cells prepared, in the above and osteoblast from calvaria were co-cultured for osteoclast differentiation. Both bone marrow cells (25,000 cells/cm^2) and osteoblast (10,000 cells/cm^2) were plated on a 96 well plate in α-MEM medium containing FBS with specimen, and then cultured with test materials for 7 days. Differentiation factors, such as dexamethasone (10^−7M) and vitamin D3 (10^−8M), were also continuously added to the medium from the first day of cultivation. The medium was changed with fresh media containing a mixture of specimens and differentiation factors every 2˜3 day.
TRAP was used as a marker to measure osteoclast in consideration of its characteristics showing a positive reaction to TRAP staining solution. TRAP staining solution was prepared in a manner that 5 mg of naphtol AS-MS phosphate (sigma N-4875), a substrate and 25 mg of coloring agent (Fast Red Violet LB salt) were dissolved in N,N-dimethylformamide (about 0.5 mL), 0.1N NaHCO3 buffer solution (50 mL) containing 50 mM tartaric acid was added, and the reaction mixture was stored at refrigerator prior to use.
After culturing the cells for 7 days, the medium was removed from the wells, the cells were once washed with PBS solution and fixed to PBS containing 10% formalin for 2˜5 mins. The cells were fixed again in a mixed solution of ethanol and acetone (1/1) for about 1 min, and dried off. The cells were further treated by TRAP staining solution for 15 mins and washed with PBS. The experimental results were measured by counting the number of osteoclasts with 3 or more nuclei showing TRAP-positive reaction under a microscopic examination. Each of tests was confirmed over three times for gaining more reliable data.
As shown in the following table 7, the inhibitory effect of each experimental group on the differentiation of osteoclast versus controls was expressed by inhibitory percentage value.

Q: Which inhibition at 1 µM does the source give for `CN(CCN1CCOCC1)c1nc(-c2ccc(OCCCCCOc3ccc(C(=N)NO)cc3)cc2)c(C2CCCC2)s1` [Example 153, N-hydroxy-4-(5-[4-(5-cyclopentyl-2-[methyl-(2-morpholinoethyl)amino]-1,3-thiazol-4-yl)phenoxy]pentoxy)-benzamidine] here?
A: The inhibition at 1 µM was 96.4%.

Same assay, conditions: Mus musculus, Osteoclast, 168 h; 1 m; co-culture of bone marrow cells and osteoblast, 7 days, TRAP-positive osteoclasts versus controls; read-out: % inhibitory activity on osteoclastogenesis

Q: `CCNc1nc(-c2ccc(OCCCCCOc3ccc(C(=N)NO)cc3)cc2)c(Cc2ccccc2)s1` [Example 108, N-hydroxy-4-(5-[4-(5-benzyl-2-ethylamino-1,3-thiazol-4-yl)phenoxy]pentoxy)-benzamidine] was tested. Which inhibition at 1 µM did it give?
A: Its inhibition at 1 µM is 25.4%.

Q: `CCCNc1nc(-c2ccc(OCCCCCOc3ccc(C(=N)NO)cc3)cc2)c(C2CCCC2)s1` [Example 113, N-hydroxy-4-(5-[4-(5-cyclopentyl-2-propylamino-1,3-thiazol-4-yl)phenoxy]pentoxy)-benzamidine] was tested. Which inhibition at 1 µM did it give?
A: Its inhibition at 1 µM is 86.7%.

Q: For `CC(C)c1sc(NCc2cccnc2)nc1-c1ccc(OCCCCCOc2ccc(C(=N)NO)cc2)cc1` [Example 114, N-hydroxy-4-(5-[4-(5-isopropyl-2-[(pyridin-3-yl-methyl)amino]-1,3-thiazol-4-yl)phenoxy]pentoxy)-benzamidine], which inhibition at 1 µM is on record?
A: Its inhibition at 1 µM is 50.9%.

Q: Which inhibition at 1 µM does the source give for `CNc1nc(-c2ccc(OCCCCCOc3ccc(C(=N)NO)cc3)cc2)cs1` [Example 116, N-hydroxy-4-(5-[4-(2-methylamino-1,3-thiazol-4-yl)phenoxy]pentoxy)-benzamidine] here?
A: Its inhibition at 1 µM is 51.3%.

Q: Which inhibition at 1 µM does the source give for `COCCN(CCOC)c1nc(-c2ccc(OCCCCCOc3ccc(C(=N)NO)cc3)cc2)c(C)s1` [Example 122, N-hydroxy-4-(5-[4-(2-(bis-(2-methoxyethyl)-amino)-5-methyl-1,3-thiazol-4-yl)phenoxy]pentoxy)-benzamidine] here?
A: Its inhibition at 1 µM is 55.8%.

Q: For `Cc1sc(N(C)CCN2CCOCC2)nc1-c1ccc(OCCCCCOc2ccc(C(=N)NO)cc2)cc1` [Example 123, N-hydroxy-4-(5-[4-(5-methyl-2-(methyl-(2-morpholinoethyl)-amino)-1,3-thiazol-4-yl)phenoxy]pentoxy)-benzamidine], which inhibition at 1 µM is on record?
A: The inhibition at 1 µM was 26.3%.

Q: How did the inhibition at 1 µM turn out when `CCN(Cc1ccccc1)c1nc(-c2ccc(OCCCCCOc3ccc(C(=N)NO)cc3)cc2)c(C)s1` [Example 127, N-hydroxy-4-(5-[4-(2-(benzyl-ethyl-amino)-5-methyl-1,3-thiazol-4-yl)phenoxy]pentoxy)-benzamidine] was run?
A: Its inhibition at 1 µM is 41.5%.

Q: `Cc1sc(N(CCO)CCO)nc1-c1ccc(OCCCCCOc2ccc(C(=N)NO)cc2)cc1` [Example 128, N-hydroxy-4-(5-[4-(2-(bis-(2-hydroxyethyl)-amino)-5-methyl-1,3-thiazol-4-yl)phenoxy]pentoxy)-benzamidine] was tested. Which inhibition at 1 µM did it give?
A: Its inhibition at 1 µM is 75.5%.

Q: How did the inhibition at 1 µM turn out when `CCc1sc(N(C)CCN2CCOCC2)nc1-c1ccc(OCCCCCOc2ccc(C(=N)NO)cc2)cc1` [Example 131, N-hydroxy-4-(5-[4-(5-ethyl-2-(methyl-(2-morpholinoethyl)-amino)-1,3-thiazol-4-yl)phenoxy]pentoxy)-benzamidine] was run?
A: Its inhibition at 1 µM is 69%.

Q: With `CCc1sc(N(CC)Cc2ccccc2)nc1-c1ccc(OCCCCCOc2ccc(C(=N)NO)cc2)cc1` [Example 135, N-hydroxy-4-(5-[4-(2-(benzyl-ethyl-amino)-5-ethyl-1,3-thiazol-4-yl)phenoxy]pentoxy)-benzamidine] as the compound, how does the inhibition at 1 µM read?
A: The inhibition at 1 µM was 48.6%.

Q: With `CC(C)c1sc(N(C)CCO)nc1-c1ccc(OCCCCCOc2ccc(C(=N)NO)cc2)cc1` [Example 140, N-hydroxy-4-(5-[4-(2-((2-hydroxyethyl)-methyl-amino)-5-isopropyl-1,3-thiazol-4-yl)phenoxy]pentoxy)-benzamidine] as the compound, how does the inhibition at 1 µM read?
A: Its inhibition at 1 µM is 18.9%.

Q: `CCS(=O)(=O)N(C)c1nc(-c2ccc(OCCCCCOc3ccc(C(=N)NO)cc3)cc2)c(C(C)C)s1` [Example 142, N-hydroxy-4-(5-[4-(2-(ethanesulfonyl-methyl-amino)-5-isopropyl-1,3-thiazol-4-yl)phenoxy]pentoxy)-benzamidine] was tested. Which inhibition at 1 µM did it give?
A: Its inhibition at 1 µM is 54.1%.

Q: For `CCCCc1sc(N(C)CCO)nc1-c1ccc(OCCCCCOc2ccc(C(=N)NO)cc2)cc1` [Example 143, N-hydroxy-4-(5-[4-(5-butyl-2-((2-hydroxyethyl)-methyl-amino)-1,3-thiazol-4-yl)phenoxy]pentoxy)-benzamidine], which inhibition at 1 µM is on record?
A: Its inhibition at 1 µM is 69.5%.

Q: For `CCCCc1sc(N(C)CCN2CCOCC2)nc1-c1ccc(OCCCCCOc2ccc(C(=N)NO)cc2)cc1` [Example 144, N-hydroxy-4-(5-[4-(5-butyl-2-(methyl-(2-morpholinoethyl)amino)-1,3-thiazol-4-yl)phenoxy]pentoxy)-benzamidine], which inhibition at 1 µM is on record?
A: The inhibition at 1 µM was 94.4%.

Q: With `CN(CCN1CCOCC1)c1nc(-c2ccc(OCCCCCOc3ccc(C(=N)NO)cc3)cc2)c(CC2CCCC2)s1` [Example 148, N-hydroxy-4-(5-[4-(5-cyclopentylmethyl-2-(methyl-(2-morpholinoethyl)amino)-1,3-thiazol-4-yl)phenoxy]pentoxy)-benzamidine] as the compound, how does the inhibition at 1 µM read?
A: Its inhibition at 1 µM is 90.1%.

Q: `CCCN(CCC)c1nc(-c2ccc(OCCCCCOc3ccc(C(=N)NO)cc3)cc2)c(CC2CCCC2)s1` [Example 149, N-hydroxy-4-(5-[4-(5-cyclopentylmethyl-2-dipropylamino-1,3-thiazol-4-yl)phenoxy]pentoxy)-benzamidine] was tested. Which inhibition at 1 µM did it give?
A: The inhibition at 1 µM was 79.2%.

Q: How did the inhibition at 1 µM turn out when `CCCCc1sc(N(CC)CC)nc1-c1ccc(OCCCCCOc2ccc(C(=N)NO)cc2)cc1` [Example 150, N-hydroxy-4-(5-[4-(5-butyl-2-diethylamino-1,3-thiazol-4-yl)phenoxy]pentoxy)-benzamidine] was run?
A: The inhibition at 1 µM was 95.4%.

Q: For `CC(C)Cc1sc(N(C)CCN2CCOCC2)nc1-c1ccc(OCCCCCOc2ccc(C(=N)NO)cc2)cc1` [Example 154, N-hydroxy-4-(5-[4-(5-isobutyl-2-[methyl-(2-morpholinoethyl)amino]-1,3-thiazol-4-yl)phenoxy]pentoxy)-benzamidine], which inhibition at 1 µM is on record?
A: Its inhibition at 1 µM is 9.3%.

Q: How did the inhibition at 1 µM turn out when `CCN(CC)c1nc(-c2ccc(OCCCCCOc3ccc(C(=N)NO)cc3)cc2)c(C2CCCC2)s1` [Example 156, N-hydroxy-4-(5-[4-(5-cyclopentyl-2-diethylamino-1,3-thiazol-4-yl)phenoxy]pentoxy)-benzamidine] was run?
A: Its inhibition at 1 µM is 15.6%.

Q: With `CCCN(CCC)c1nc(-c2ccc(OCCCCCOc3ccc(C(=N)NO)cc3)cc2)c(C(C)C)s1` [Example 157, N-hydroxy-4-(5-[4-(5-isopropyl-2-dipropylamino-1,3-thiazol-4-yl)phenoxy]pentoxy)-benzamidine] as the compound, how does the inhibition at 1 µM read?
A: The inhibition at 1 µM was 92.3%.

Q: `CCN(CC)c1nc(-c2ccc(OCCCCCOc3ccc(C(=N)NO)cc3)cc2)c(CC2CCCC2)s1` [Example 160, N-hydroxy-4-(5-[4-(5-cyclopentylmethyl-2-diethylamino-1,3-thiazol-4-yl)phenoxy]pentoxy)-benzamidine] was tested. Which inhibition at 1 µM did it give?
A: The inhibition at 1 µM was 83.7%.

Q: With `CC(C)c1sc(N(C)C)nc1-c1ccc(OCCCCCOc2ccc(C(=N)NO)cc2)cc1` [Example 161, N-hydroxy-4-(5-[4-(5-isopropyl-2-dimethylamino-1,3-thiazol-4-yl)phenoxy]pentoxy)-benzamidine] as the compound, how does the inhibition at 1 µM read?
A: The inhibition at 1 µM was 89.1%.

Q: With `CCN(CC)c1nc(-c2ccc(OCCCCCOc3ccc(C(=N)NO)cc3)cc2)c(C(C)C)s1` [Example 162, N-hydroxy-4-(5-[4-(5-isopropyl-2-diethylamino-1,3-thiazol-4-yl)phenoxy]pentoxy)-benzamidine] as the compound, how does the inhibition at 1 µM read?
A: The inhibition at 1 µM was 87.4%.

Q: With `CN(C)c1nc(-c2ccc(OCCCCCOc3ccc(C(=N)NO)cc3)cc2)c(CC2CCCC2)s1` [Example 163, N-hydroxy-4-(5-[4-(5-cyclopentylmethyl-2-dimethylamino-1,3-thiazol-4-yl)phenoxy]pentoxy)-benzamidine] as the compound, how does the inhibition at 1 µM read?
A: Its inhibition at 1 µM is 88.1%.

Same assay, conditions: co-culture of bone marrow cells and osteoblast, 7 days, TRAP-positive osteoclasts versus controls

Q: Which “% inhibitory activity on osteoclastogenesis” value does the source give for `CCc1sc(NCc2cccnc2)nc1-c1ccc(OCCCCCOc2ccc(C(=N)NO)cc2)cc1` [Example 117] here?
A: Its value is 2.7%.

Q: With `CCc1sc(N(Cc2cccnc2)Cc2cccnc2)nc1-c1ccc(OCCCCCOc2ccc(C(=N)NO)cc2)cc1` [Example 137] as the compound, how does the “% inhibitory activity on osteoclastogenesis” value read?
A: The value was 62.7%.
